For 17 compounds, IC50 results are on record in patent publication US10968215B2 (SHANGHAI HAIHE PHARMACEUTICAL CO., LTD., priority 2016, dated 2021).

Some results are limits rather than exact numbers.

The target of the first assay is PRC2 complex (EZH2 Y641F/EED/SUZ12/RbAp48/AEBP2) (Homo sapiens (Human), UniProt Q15910, Y641F). Kind of assay: Activity of a compound to PRC2 complex (EZH2 Y641F), HTRF.
PRC2 complex (EZH2 Y641F/EED/SUZ12/RbAp48/AEBP2), sequence (Q15910 whole entry Y641F): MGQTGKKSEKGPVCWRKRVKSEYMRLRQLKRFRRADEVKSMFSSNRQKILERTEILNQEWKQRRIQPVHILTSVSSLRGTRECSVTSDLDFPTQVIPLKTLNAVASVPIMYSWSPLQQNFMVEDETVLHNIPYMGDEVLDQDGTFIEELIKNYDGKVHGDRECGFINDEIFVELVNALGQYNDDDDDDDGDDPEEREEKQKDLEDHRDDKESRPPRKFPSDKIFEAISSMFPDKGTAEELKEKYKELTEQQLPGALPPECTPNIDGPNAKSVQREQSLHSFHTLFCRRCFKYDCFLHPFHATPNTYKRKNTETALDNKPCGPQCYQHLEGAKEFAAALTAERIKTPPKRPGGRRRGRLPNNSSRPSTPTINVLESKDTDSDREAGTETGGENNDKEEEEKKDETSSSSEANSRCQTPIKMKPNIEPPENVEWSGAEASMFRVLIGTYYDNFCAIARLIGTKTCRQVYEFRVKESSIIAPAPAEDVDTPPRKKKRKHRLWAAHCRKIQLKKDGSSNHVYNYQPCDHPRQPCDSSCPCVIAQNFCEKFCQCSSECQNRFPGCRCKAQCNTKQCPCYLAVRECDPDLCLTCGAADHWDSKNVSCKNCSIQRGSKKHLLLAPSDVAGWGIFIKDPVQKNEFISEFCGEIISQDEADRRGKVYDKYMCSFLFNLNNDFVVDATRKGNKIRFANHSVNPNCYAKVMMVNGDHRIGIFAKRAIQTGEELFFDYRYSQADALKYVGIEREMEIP
PRC2 complex (EZH2 Y641F/EED/SUZ12/RbAp48/AEBP2), sequence (O75530 whole entry partner): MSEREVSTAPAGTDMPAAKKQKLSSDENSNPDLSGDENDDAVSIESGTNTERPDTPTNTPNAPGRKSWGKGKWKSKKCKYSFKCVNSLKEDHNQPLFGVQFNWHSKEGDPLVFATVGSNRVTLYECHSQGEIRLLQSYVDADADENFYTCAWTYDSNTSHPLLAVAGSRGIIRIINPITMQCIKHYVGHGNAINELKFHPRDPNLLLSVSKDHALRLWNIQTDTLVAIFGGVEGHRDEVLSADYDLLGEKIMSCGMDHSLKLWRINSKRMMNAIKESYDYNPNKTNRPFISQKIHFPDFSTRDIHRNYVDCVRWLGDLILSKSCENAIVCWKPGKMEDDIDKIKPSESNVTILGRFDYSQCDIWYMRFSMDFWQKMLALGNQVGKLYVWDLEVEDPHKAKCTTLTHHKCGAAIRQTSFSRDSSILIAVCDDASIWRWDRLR
PRC2 complex (EZH2 Y641F/EED/SUZ12/RbAp48/AEBP2), sequence (Q15022 whole entry partner): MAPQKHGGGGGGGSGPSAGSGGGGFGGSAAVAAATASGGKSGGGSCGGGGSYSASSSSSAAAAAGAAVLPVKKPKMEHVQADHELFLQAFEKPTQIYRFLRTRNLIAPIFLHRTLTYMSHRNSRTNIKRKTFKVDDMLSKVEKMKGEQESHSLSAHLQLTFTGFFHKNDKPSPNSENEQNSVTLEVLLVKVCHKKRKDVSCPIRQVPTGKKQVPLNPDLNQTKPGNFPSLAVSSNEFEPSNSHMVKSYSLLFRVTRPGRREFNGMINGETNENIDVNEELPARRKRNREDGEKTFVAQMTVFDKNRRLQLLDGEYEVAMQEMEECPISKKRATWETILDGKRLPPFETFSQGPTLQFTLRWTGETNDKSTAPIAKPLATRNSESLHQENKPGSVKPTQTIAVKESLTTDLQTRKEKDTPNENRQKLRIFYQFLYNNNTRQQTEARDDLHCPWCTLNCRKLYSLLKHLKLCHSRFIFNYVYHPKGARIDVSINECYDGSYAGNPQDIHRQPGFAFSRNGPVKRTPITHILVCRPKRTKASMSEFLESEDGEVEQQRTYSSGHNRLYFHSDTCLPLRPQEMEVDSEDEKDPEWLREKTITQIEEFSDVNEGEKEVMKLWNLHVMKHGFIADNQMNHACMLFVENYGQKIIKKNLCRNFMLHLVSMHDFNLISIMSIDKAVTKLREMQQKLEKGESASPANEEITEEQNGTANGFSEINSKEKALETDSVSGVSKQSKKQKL
PRC2 complex (EZH2 Y641F/EED/SUZ12/RbAp48/AEBP2), sequence (Q09028 whole entry partner): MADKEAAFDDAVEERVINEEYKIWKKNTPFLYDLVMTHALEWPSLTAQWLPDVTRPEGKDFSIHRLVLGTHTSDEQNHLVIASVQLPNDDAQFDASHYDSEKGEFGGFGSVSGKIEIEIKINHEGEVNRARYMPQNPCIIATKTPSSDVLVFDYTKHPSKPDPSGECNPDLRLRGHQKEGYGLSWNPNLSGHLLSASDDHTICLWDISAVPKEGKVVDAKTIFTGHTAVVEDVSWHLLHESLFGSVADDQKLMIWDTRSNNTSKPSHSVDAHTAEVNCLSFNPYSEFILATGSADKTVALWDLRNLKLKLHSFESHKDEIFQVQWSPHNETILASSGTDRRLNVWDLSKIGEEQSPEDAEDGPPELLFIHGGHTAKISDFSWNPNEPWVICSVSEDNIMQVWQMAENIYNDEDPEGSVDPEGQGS
PRC2 complex (EZH2 Y641F/EED/SUZ12/RbAp48/AEBP2), sequence (Q6ZN18 whole entry partner): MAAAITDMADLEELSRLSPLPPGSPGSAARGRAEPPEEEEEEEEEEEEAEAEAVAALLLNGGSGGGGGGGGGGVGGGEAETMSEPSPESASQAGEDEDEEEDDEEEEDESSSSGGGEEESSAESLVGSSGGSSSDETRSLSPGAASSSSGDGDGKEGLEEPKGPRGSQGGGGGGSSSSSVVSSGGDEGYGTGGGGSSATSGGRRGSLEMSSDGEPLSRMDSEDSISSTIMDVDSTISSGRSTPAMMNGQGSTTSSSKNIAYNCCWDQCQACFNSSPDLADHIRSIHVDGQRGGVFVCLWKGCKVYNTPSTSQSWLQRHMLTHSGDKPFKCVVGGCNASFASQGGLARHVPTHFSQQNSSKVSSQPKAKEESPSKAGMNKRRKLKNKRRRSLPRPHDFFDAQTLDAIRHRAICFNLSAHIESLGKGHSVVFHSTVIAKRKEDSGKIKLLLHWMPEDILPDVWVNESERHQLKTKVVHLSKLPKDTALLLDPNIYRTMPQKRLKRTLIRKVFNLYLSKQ
Conditions: not given
Background: In TR-FRET formats the signal depends on donor and acceptor labels being close together.
As a reminder, the IC50 is the concentration that inhibits the measured activity by half. `COc1cc(C)[nH]c(=O)c1CNC(=O)c1cc2c(-c3cnc(C)nc3)ccn2c(C(C)N2CCN(CC(F)(F)F)CC2)c1C` (centres unmarked) [Compound 196, N-((4-methoxy-6-methyl-2-oxo-1,2-dihydropyridin-3-yl)methyl)-6-methyl-1-(2-methylpyrimidin-5-yl)-5-(1-(4-(2,2,2-trifluoroethyl)piperazin-1-yl)ethyl)indolizine-7-carboxamide]: the IC50 was below 100 nM.

In turn, `COc1cc(C)[nH]c(=O)c1CNC(=O)c1cc2c(-c3ccnn3C)ccn2c(C(C)N2CCOCC2)c1C` (centres unmarked) [Example 132, N-((4-methoxy-6-methyl-2-oxo-1,2-dihydropyridin-3-yl)methyl)-6-methyl-1-(1-methyl-1H-pyrazol-5-yl)-5-(1-morpholinylethyl)indolizine-7-carboxamide] had an IC50 below 100 nM.

`Cc1cc(C)c(CNC(=O)c2cc3c(-c4ccccc4)ccn3c(C(C)N3CCC(N(C)C)CC3)c2C)c(=O)[nH]1` (centres unmarked) [Example 127, N-((4,6-dimethyl-2-oxo-1,2-dihydropyridin-3-yl)methyl)-6-methyl-5-(4-dimethylaminopiperidinylethyl)-1-phenylindolizine-7-carboxamide] yielded an IC50 below 100 nM.

As to `Cc1cc(C)c(CNC(=O)c2cc3cncn3c(N(C)C3CCOCC3)c2C)c(=O)[nH]1` [Example 68, N-((4,6-dimethyl-2-oxo-1,2-dihydropyridin-3-yl)methyl)-6-methyl-5-(methyl(tetrahydro-2H-pyran-4-yl)amino)imidazo[1,5-a]pyridine-7-carboxamide], the IC50 was below 100 nM.

The assay is the same for the next values; noted with them: read-out: IC50 (EZH2_Y641F); EZH2 Y641F PRC2 complex, HTRF; class symbols.
Take `Cc1cc(C)c(CNC(=O)c2cc3c(-c4ccc(N5CCOCC5)cc4)ccn3c(C(C)N3CCOCC3)c2C)c(=O)[nH]1` (centres unmarked) [Example 119, N-((4,6-dimethyl-2-oxo-1,2-dihydropyridin-3-yl)methyl)-6-methyl-5-(1-morpholinylethyl)-1-(4-morpholinylphenyl)indolizine-7-carboxamide]: the IC50 was below 100 nM.

Regarding `COC(=O)c1cc2cc(C(=O)NCc3c(C)cc(C)[nH]c3=O)c(C)c(C(C)N3CCOCC3)n2c1` (centres unmarked) [Example 125, methyl 7-(((4,6-dimethyl-2-oxo-1,2-dihydropyridin-3-yl)methyl)carbamoyl)-6-methyl-5-(1-morpholinylethyl)indolizine-2-carboxylate], the 50% inhibitory concentration (IC50) lay within 100 to 1000 nM.

For the compound `Cc1cc(C)c(CNC(=O)c2cc3cccn3c(C(C)OC3CCCCC3)c2C)c(=O)[nH]1` (centres unmarked) [Example 8, 5-(1-(cyclohexyloxy)ethyl)-N-((4,6-dimethyl-2-oxo-1,2-dihydropyridin-3-yl)methyl)-6-methylindolizine-7-carboxamide], the IC50 fell in the range of 100 to 1000 nM.

Turning to `Cc1cc(C)c(CNC(=O)c2cc3c(-c4ccc(N5CCOCC5)cc4)ccn3c(C(C)N3CCOCC3)c2C)c(=O)[nH]1` (centres unmarked) [Example 118, N-((4,6-dimethyl-2-oxo-1,2-dihydropyridin-3-yl)methyl)-1-(4-(dimethylamine)phenyl)-6-methyl-5-(1-morpholinylethyl)indolizine-7-carboxamide], the IC50 was below 100 nM.

With `C=CCOC(C)c1c(C)c(C(=O)NCc2c(C)cc(C)[nH]c2=O)cc2cccn12` (centres unmarked) [Example 3], the IC50 lay in the range of 100 to 1000 nM.

With `CNc1ccc(-c2ccn3c(C(C)N4CCN(CC(F)(F)F)CC4)c(C)c(C(=O)NCc4c(OC)cc(C)[nH]c4=O)cc23)cn1` (centres unmarked) [Compound 163, N-((4-methoxy-6-methyl-2-oxo-1,2-dihydropyridin-3-yl)methyl)-6-methyl-1-(6-(methylamino)pyridin-3-yl)-5-(1-(4-(2,2,2-trifluoroethyl)piperazin-1-yl)ethyl)indolizine-7-carboxamide], the IC50 is below 100 nM.

Consider `COc1cc(C)[nH]c(=O)c1CNC(=O)c1cc2c(-c3cccnc3N(C)C)ccn2c(C(C)N2CCN(CC(F)(F)F)CC2)c1C` (centres unmarked) [Compound 179, 1-(2-(dimethylamino)pyridin-3-yl)-N-((4-methoxy-6-methyl-2-oxo-1,2-dihydropyridin-3-yl)methyl)-6-methyl-5-(1-(4-(2,2,2-trifluoroethyl)piperazin-1-yl)ethyl)indolizine-7-carboxamide], for which the IC50 was below 100 nM.

As for `CCOC(C)c1c(C)c(C(=O)NCc2c(C)cc(C)[nH]c2=O)cc2cccn12` (centres unmarked) [Example 2, N-((4,6-Dimethyl-2-oxo-1,2-dihydropyridin-3-yl)methyl)-5-(1-ethoxyethyl)-6-methylindolizine-7-carboxamide], the IC50 was 1000 to 10000 nM.

Turning to `COc1cc(C)[nH]c(=O)c1CNC(=O)c1cc2cc(Cl)cn2c(C(C)N2CCC(N(C)C)CC2)c1C` (centres unmarked) [Example 130, 2-chloro-5-(1-(4-(dimethylamino)piperidin-1-yl)ethyl)-N-((4-methoxy-6-methyl-2-oxo-1,2-di hydropyridin-3-yl)methyl)-6-methylindolizine-7-carboxamide], the IC50 was below 100 nM.

`COc1cc(C)[nH]c(=O)c1CNC(=O)c1cc2c(-c3cnc(C)nc3)ccn2c([C@H](C)N2CCN(CC(F)(F)F)CC2)c1C` (single isomer, unassigned) [Compound 197, (S)—N-((4-methoxy-6-methyl-2-oxo-1,2-dihydropyridin-3-yl)methyl)-6-methyl-1-(2-methylpyrimidin-5-yl)-5-(1-(4-(2,2,2-trifluoroethyl)piperazin-1-yl)ethyl)indolizine-7-formamide or (R)—N-((4-methoxy-6-methyl-2-oxo-1,2-dihydropyridin-3-yl)methyl)-6-methyl-1-(2-methylpyrimidin-5-yl)-5-(1-(4-(2,2,2-trifluoroethyl)piperazin-1-yl)ethyl)indolizine-7-formamide]: the IC50 was below 100 nM.

For the compound `COc1cc(C)[nH]c(=O)c1CNC(=O)c1cc2c(-c3ccnc(Cl)c3)ccn2c([C@H](C)N2CCN(CC(F)(F)F)CC2)c1C` (single isomer, unassigned) [Compound 169, (S)-1-(2-chloropyridin-4-yl)-N-((4-methoxy-6-methyl-2-oxo-1,2-dihydropyridine-3-yl)methyl)-6-methyl-5-(1-(4-(2,2,2-trifluoroethyl)piperazin-1-yl)ethyl)indolizine-7-carboxamide or (R) 1-(2-chloropyridin-4-yl)-N-((4-methoxy-6-methyl-2-oxo-1,2-dihydropyridine-3-yl)methyl)-6-methyl-5-(1-(4-(2,2,2-trifluoroethyl)piperazin-1-yl)ethyl)indolizine-7-carboxamide], the IC50 is below 100 nM.

For the compound `COc1cc(C)[nH]c(=O)c1CNC(=O)c1cc2c(-c3cc(C)nc(C)c3)ccn2c([C@H](C)N2CCN(CC(F)(F)F)CC2)c1C` (single isomer, unassigned) [Compound 174, (S)-1-(2,6-dimethylpyridin-4-yl)-N-((4-methoxy-6-methyl-2-oxo-1,2-dihydropyridine-3-yl)methyl)-6-methyl-5-(1-(4-(2,2,2-trifluoroethyl)piperazin-1-yl)ethyl)indolizine-7-carboxamide or (R) 1-(2,6-dimethylpyridin-4-yl)-N-((4-methoxy-6-methyl-2-oxo-1,2-dihydropyridine-3-yl)methyl)-6-methyl-5-(1-(4-(2,2,2-trifluoroethyl)piperazin-1-yl)ethyl)indolizine-7-carboxamide], the IC50 is below 100 nM.

The same assay, now with this note: read-out: IC50 (EZH2_Y641F); EZH2 Y641F PRC2 complex, HTRF; numeric values.
`COc1cc(C)[nH]c(=O)c1CNC(=O)c1cc2c(-c3cn[nH]c3)ccn2c(C(C)N2CCOCC2)c1C` (centres unmarked) [Compound 152, N-((4-Methoxy-6-methyl-2-oxo-1,2-dihydropyridin-3-yl)methyl)-6-methyl-5-(1-morpholinylethyl)-1-(1H-pyrazol-4-yl)indolizine-7-carboxamide]: the IC50 turned out to be 2.65 nM.
